The results in this text go back to EP2776398B1, “SUBSTITUTED PYRAZOLYL-BASED UREA DERIVATIVES AS VANILLOID RECEPTOR LIGANDS” (Medifron DBT Inc., priority 2011, dated 2013).

A word on the inhibition: it is the percentage by which the read-out fell short of the control. As a reminder, the Ki is a dissociation constant, usually derived from enzyme kinetics or from competition with a known ligand.

T1 sequence (Q8NER1 whole entry): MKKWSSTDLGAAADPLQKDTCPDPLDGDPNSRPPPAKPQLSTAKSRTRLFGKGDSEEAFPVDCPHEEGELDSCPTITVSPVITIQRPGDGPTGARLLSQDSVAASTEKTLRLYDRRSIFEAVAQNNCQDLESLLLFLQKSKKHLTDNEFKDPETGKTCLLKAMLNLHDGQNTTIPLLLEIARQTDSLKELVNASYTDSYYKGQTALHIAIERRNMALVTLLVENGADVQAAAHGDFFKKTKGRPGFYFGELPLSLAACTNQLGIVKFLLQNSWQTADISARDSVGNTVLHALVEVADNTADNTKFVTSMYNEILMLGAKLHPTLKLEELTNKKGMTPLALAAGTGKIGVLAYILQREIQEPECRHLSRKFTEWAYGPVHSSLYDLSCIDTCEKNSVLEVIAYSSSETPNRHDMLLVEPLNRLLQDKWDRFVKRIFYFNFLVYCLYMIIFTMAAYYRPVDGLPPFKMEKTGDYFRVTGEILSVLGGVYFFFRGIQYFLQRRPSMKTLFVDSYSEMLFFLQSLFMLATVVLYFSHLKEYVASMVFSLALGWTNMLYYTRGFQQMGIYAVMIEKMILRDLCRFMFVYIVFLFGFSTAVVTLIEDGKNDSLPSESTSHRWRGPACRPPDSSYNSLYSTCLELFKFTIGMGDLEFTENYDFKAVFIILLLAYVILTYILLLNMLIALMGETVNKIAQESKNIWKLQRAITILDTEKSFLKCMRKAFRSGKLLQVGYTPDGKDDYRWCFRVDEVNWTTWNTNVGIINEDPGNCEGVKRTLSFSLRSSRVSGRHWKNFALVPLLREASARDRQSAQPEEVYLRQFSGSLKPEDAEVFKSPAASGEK

One test has as its target T1, vanilloid receptor 1 (VR1/TRPV1 receptor) (Homo sapiens, UniProt Q8NER1).
T1 construct: expressed in transfected cells; host or cells: CHO K1 cells (ECACC), stably transfected
Nature of the test: Functional testing on vanilloid receptor 1: FLIPR Ca2+ influx assay against capsaicin (Cap) in transfected CHO K1 cells (pharmacological method II). As to Ki: 100 nM capsaicin. Also on record: key to (f) Ki (human being) [nM] Cap: agonist classification: AG = agonist. The class given is cell-based. Particulars: @ 1µM; human VR1 in CHO K1 cells; capsaicin; relative to maximum inhibition with 10 µM capsazepine; read-out: inhibition (as a percentage), printed in column (f) Ki (human being) [nM] Cap.
From the text: […]
Take `O=C(NCc1cc(C(F)(F)F)nn1-c1cccc(F)c1)Nc1ccc(OCC(O)CO)cc1` (stereo not shown) [A26, 1-[4-(2,3-Dihydroxy-propoxy)-phenyl]-3-[[2-(3-fluorophenyl)-5-(trifluoromethyl)-2H-pyrazol-3-yl]-methyl]-urea]: the inhibition at 1 µM was 34%.

As for `CC(C)(C)c1cc(CNC(=O)Nc2ccc(COCCO)c(F)c2)n(-c2ccc(F)cc2)n1` [A134, 1-[[5-tert-Butyl-2-(4-fluorophenyl)-2H-pyrazol-3-yl]-methyl]-3-[3-fluoro-4-(2-hydroxy-ethoxy-methyl)-phenyl]-urea], the inhibition at 1 µM stood at 23%.

Still in this test, the particulars now being: human VR1 in CHO K1 cells; AG printed instead of a Ki.
As for `CC(C(=O)NCc1cc(C(C)(C)C)nn1-c1cccc(C(F)(F)F)c1)c1ccc(CO)c(F)c1` (stereo not shown) [A47, N-[[5-tert-Butyl-2-[3-(trifluoromethyl)phenyl]-2H-pyrazol-3-yl]-methyl]-2-[3-fluoro-4-(hydroxymethyl)-phenyl]-propionamide], the “(f) Ki (human being) [nM] Cap: agonist classification” value (“(f) Ki (human being) [nM] Cap” below) is reported as “AG”.

`COc1ccc(NC(=O)NCc2cc(C(C)(C)C)nn2-c2cccc(Cl)c2)cc1OC` [A13, 1-[[5-tert-Butyl-2-(3-chlorophenyl)-2H-pyrazol-3-yl]-methyl]-3-(3,4-dimethoxyphenyl)-urea]: the “(f) Ki (human being) [nM] Cap” value is reported as “AG”.

Regarding `CC(C(=O)NCc1cc(C(C)(C)C)nn1-c1cccc(F)c1)c1ccc(CO)c(F)c1` (stereo not shown) [A37, N-[[5-tert-Butyl-2-(3-fluorophenyl)-2H-pyrazol-3-yl]-methyl]-2-[3-fluoro-4-(hydroxymethyl)-phenyl]-propionamide], the “(f) Ki (human being) [nM] Cap” value is reported as “AG”.

Take `CC(C)(C)c1cc(CNC(=O)Nc2ccc(OCC(O)CO)c(F)c2)n(-c2cccc(Cl)c2)n1` (stereo not shown) [A24, 1-[[5-tert-Butyl-2-(3-chlorophenyl)-2H-pyrazol-3-yl]-methyl]-3-[4-(2,3-dihydroxy-propoxy)-3-fluoro-phenyl]-urea]: the “(f) Ki (human being) [nM] Cap” value is “AG”.

Take `COCCOc1ccc(NC(=O)NCc2cc(C(C)(C)C)nn2-c2cccc(Cl)c2)cc1F` [A17, 1-[[5-tert-Butyl-2-(3-chlorophenyl)-2H-pyrazol-3-yl]-methyl]-3-[3-fluoro-4-(2-methoxy-ethoxy)-phenyl]-urea]: the “(f) Ki (human being) [nM] Cap” value was “AG”.

The test is the same for the next values; noted with them: read-out: (f) Ki (human being) [nM] Cap.
On to `CC(C(=O)NCc1cc(C(F)(F)F)nn1-c1cccc(Cl)c1)c1ccc(CO)c(F)c1` (stereo not shown) [A33, N-[[2-(3-Chlorophenyl)-5-(trifluoromethyl)-2H-pyrazol-3-yl]-methyl]-2-[3-fluoro-4-(hydroxymethyl)-phenyl]-propionamide], for which the Ki is 2 nM.

As to `CC(CO)(CO)c1ccc(NC(=O)NCc2cc(C(F)(F)F)nn2-c2cccc(Cl)c2)cc1F` [A154, 1-[[2-(3-Chlorophenyl)-5-(trifluoromethyl)-2H-pyrazol-3-yl]-methyl]-3-[3-fluoro-4-[2-hydroxy-1-(hydroxymethyl)-1-methyl-ethyl]-phenyl]-urea], the Ki worked out at 117 nM.

On to `O=C(NCc1cc(C(F)(F)F)nn1-c1ccc(F)cc1)Nc1ccc(CO)c(F)c1` [A63, 1-[3-Fluoro-4-(hydroxymethyl)-phenyl]-3-[[2-(4-fluorophenyl)-5-(trifluoromethyl)-2H-pyrazol-3-yl]-methyl]-urea], for which the Ki amounted to 9 nM.

`CC(C)(C)c1cc(CNC(=O)Nc2ccc(C(C)(CO)CO)c(F)c2)n(-c2cccc(Cl)c2)n1` [A156, 1-[[5-tert-Butyl-2-(3-chlorophenyl)-2H-pyrazol-3-yl]-methyl]-3-[3-fluoro-4-[2-hydroxy-1-(hydroxymethyl)-1-methyl-ethyl]-phenyl]-urea]: the Ki was 84 nM.

In the case of `CC(C)(C)c1cc(CNC(=O)Nc2ccc(C3(O)CC3)c(F)c2)n(-c2cccc(Cl)c2)n1` [A105, 1-[[5-tert-Butyl-2-(3-chlorophenyl)-2H-pyrazol-3-yl]-methyl]-3-[3-fluoro-4-(1-hydroxy-cyclopropyl)-phenyl]-urea], the Ki amounted to 19 nM.

Regarding `O=C(NCc1cc(C(F)(F)F)nn1-c1ccc(F)c(Cl)c1)Nc1ccc(CO)c(F)c1` [A65, 1-[[2-(3-Chloro-4-fluoro-phenyl)-5-(trifluoromethyl)-2H-pyrazol-3-yl]-methyl]-3-[3-fluoro-4-(hydroxymethyl)-phenyl]-urea], the Ki was 6 nM.

With `COc1ccc(Cl)cc1-n1nc(C(F)(F)F)cc1CNC(=O)Nc1ccc(CO)c(F)c1` [A91, 1-[[2-(5-Chloro-2-methoxy-phenyl)-5-(trifluoromethyl)-2H-pyrazol-3-yl]-methyl]-3-[3-fluoro-4-(hydroxymethyl)-phenyl]-urea], the Ki is 51 nM.

With `CC(C)c1cccc(-n2nc(C(F)(F)F)cc2CNC(=O)C(C)c2ccc(CCO)c(F)c2)c1` (stereo not shown) [A137, 2-[3-Fluoro-4-(2-hydroxy-ethyl)-phenyl]-N-[[2-(3-isopropyl-phenyl)-5-(trifluoromethyl)-2H-pyrazol-3-yl]-methyl]-propionamide], the Ki stood at 0.6 nM.

Take `COc1cccc(-n2nc(C(F)(F)F)cc2CNC(=O)C(C)c2ccc(COCCO)c(F)c2)c1` (stereo not shown) [A114, 2-[3-Fluoro-4-(2-hydroxy-ethoxy-methyl)-phenyl]-N-[[2-(3-methoxyphenyl)-5-(trifluoromethyl)-2H-pyrazol-3-yl]-methyl]-propionamide]: the Ki turned out to be 46 nM.

Turning to `O=C(NCc1cc(C(F)(F)F)nn1-c1cccc(F)c1)Nc1ccc(OCCO)c(F)c1` [A21, 1-[3-Fluoro-4-(2-hydroxy-ethoxy)-phenyl]-3-[[2-(3-fluorophenyl)-5-(trifluoromethyl)-2H-pyrazol-3-yl]-methyl]-urea], the Ki came out at 7 nM.

For the molecule `O=C(Cc1ccc(COCCO)c(F)c1)NCc1cc(C(F)(F)F)nn1-c1cccc(Cl)c1` [A113, N-[[2-(3-Chlorophenyl)-5-(trifluoromethyl)-2H-pyrazol-3-yl]-methyl]-2-[3-fluoro-4-(2-hydroxy-ethoxy-methyl)-phenyl]-acetamide], the Ki stood at 63 nM.

With `CC(C(=O)NCc1cc(C(C)(C)C)nn1-c1ccc(F)cc1)c1ccc(CO)c(F)c1` (stereo not shown) [A45, N-[[5-tert-Butyl-2-(4-fluorophenyl)-2H-pyrazol-3-yl]-methyl]-2-[3-fluoro-4-(hydroxymethyl)-phenyl]-propionamide], the Ki worked out at 1 nM.

Take `O=C(NCc1cc(C(F)(F)F)nn1-c1cc(F)cc(F)c1)Nc1ccc(CO)c(F)c1` [A66, 1-[[2-(3,5-Difluoro-phenyl)-5-(trifluoromethyl)-2H-pyrazol-3-yl]-methyl]-3-[3-fluoro-4-(hydroxymethyl)-phenyl]-urea]: the Ki amounted to 9 nM.

Regarding `Cc1ccccc1-n1nc(C(F)(F)F)cc1CNC(=O)Nc1ccc(CO)c(F)c1` [A69, 1-[3-Fluoro-4-(hydroxymethyl)-phenyl]-3-[[2-(o-tolyl)-5-(trifluoromethyl)-2H-pyrazol-3-yl]-methyl]-urea], the Ki is 45 nM.

Turning to `C[C@@H](C(=O)NCc1cc(C(F)(F)F)nn1-c1cccc(Cl)c1)c1ccc(CO)c(F)c1` [A35, (2R)-N-[[2-(3-Chlorophenyl)-5-(trifluoromethyl)-2H-pyrazol-3-yl]-methyl]-2-[3-fluoro-4-(hydroxymethyl)-phenyl]-propionamide], the Ki turned out to be 1 nM.

For the molecule `O=C(NCc1cc(C(F)(F)F)nn1-c1cccc(Cl)c1)Nc1ccc(C2(O)COC2)cc1` [A108, 1-[[2-(3-Chlorophenyl)-5-(trifluoromethyl)-2H-pyrazol-3-yl]-methyl]-3-[4-(3-hydroxy-oxetan-3-yl)-phenyl]-urea], the Ki was 48 nM.

Take `COc1ccc(NC(=O)NCc2cc(C(F)(F)F)nn2-c2cccc(Cl)c2)cc1OC` [A14, 1-[[2-(3-Chlorophenyl)-5-(trifluoromethyl)-2H-pyrazol-3-yl]-methyl]-3-(3,4-dimethoxyphenyl)-urea]: the Ki worked out at 25 nM.

In the case of `O=C(NCc1cc(C(F)(F)F)nn1-c1cccc(Cl)c1)Nc1ccc(CCO)c(F)c1` [A141, 1-[[2-(3-Chlorophenyl)-5-(trifluoromethyl)-2H-pyrazol-3-yl]-methyl]-3-[3-fluoro-4-(2-hydroxy-ethyl)-phenyl]-urea], the Ki came out at 26 nM.

Turning to `COc1c(F)cc(CC(=O)NCc2cc(C(F)(F)F)nn2-c2ccc(F)c(Cl)c2)cc1F` [A7, N-[[2-(3-Chloro-4-fluoro-phenyl)-5-(trifluoromethyl)-2H-pyrazol-3-yl]-methyl]-2-(3,5-difluoro-4-methoxy-phenyl)-acetamide], the Ki is 26 nM.

`CCOc1ccc(-n2nc(C(F)(F)F)cc2CNC(=O)Nc2ccc(CO)c(F)c2)cc1C` [A79, 1-[[2-(4-Ethoxy-3-methyl-phenyl)-5-(trifluoromethyl)-2H-pyrazol-3-yl]-methyl]-3-[3-fluoro-4-(hydroxymethyl)-phenyl]-urea]: the Ki stood at 20 nM.

Take `CC(C)(C)c1cc(CNC(=O)Nc2ccc(C(O)CO)c(F)c2)n(-c2cccc(Cl)c2)n1` (stereo not shown) [A150, 1-[[5-tert-Butyl-2-(3-chlorophenyl)-2H-pyrazol-3-yl]-methyl]-3-[4-(1,2-dihydroxy-ethyl)-3-fluoro-phenyl]-urea]: the Ki is 19 nM.

For the molecule `CC(C(=O)NCc1cc(C(F)(F)F)nn1-c1cccc(F)c1)c1ccc(CCO)c(F)c1` (stereo not shown) [A136, 2-[3-Fluoro-4-(2-hydroxy-ethyl)-phenyl]-N-[[2-(3-fluorophenyl)-5-(trifluoromethyl)-2H-pyrazol-3-yl]-methyl]-propionamide], the Ki turned out to be 40 nM.

In the case of `CC(C(=O)NCc1cc(C(F)(F)F)nn1-c1cccc(Cl)c1)c1ccc(C(O)CO)cc1` (stereo not shown) [A146, N-[[2-(3-Chlorophenyl)-5-(trifluoromethyl)-2H-pyrazol-3-yl]-methyl]-2-[4-(1,2-dihydroxy-ethyl)-phenyl]-propionamide], the Ki was 13 nM.

Consider `O=C(NCc1cc(C(F)(F)F)nn1-c1cccc(Cl)c1)Nc1ccc(C2(O)CC2)c(F)c1` [A106, 1-[[2-(3-Chlorophenyl)-5-(trifluoromethyl)-2H-pyrazol-3-yl]-methyl]-3-[3-fluoro-4-(1-hydroxy-cyclopropyl)-phenyl]-urea], for which the inhibitory constant (Ki) was 31 nM.
